Structures are written as SMILES. Where two headings read alike, the source gives them in different places.

Here are results for three molecules from patent US20050004118A1, “Prodrugs of non-steroidal anti-inflammatory and carboxylic acid containing compounds” (priority 2000, published 2005).

Series [1] in a line: stability against chemical hydrolysis in pH solutions. The series is classed as physicochemical.
In the next series the test system is plasma enzymes. The series can be described thus: half-life of prodrug ester in plasma (hydrolysis by plasma enzymes). The settings on record: plasma.
Assay in series [2]: as above
Conditions: in plasma at physiologic pH.

For series [3] the following is noted: cited from earlier work.

As to `Cc1cccc(Nc2ccccc2C(=O)OCCOC(=O)N2CCOCC2)c1C` [2-[(2,3-Dimethylphenyl)amino]-benzoic acid morpholinocarbonyloxyethyl ester], the half-life is 7.6 h in series [1] (pH 1.0 solution, pH 1, 1.0 pH solution, read-out: half life in a 1.0 pH solution (converted)); 66 h in series [1] (pH 7.4 solution, pH 7.4, 7.4 pH solution, read-out: half life in a 7.4 pH solution (converted)); 0.333 h in the series on plasma enzymes.

Regarding `O=C(Cc1ccccc1Nc1c(Cl)cccc1Cl)OCCOC(=O)N1CCOCC1` [2-[(2,6-Dichlorophenyl])amino]benzene-acetic acid morpholinocarbonyloxyethyl ester], the “half life in a 1.0 pH solution” value in series [1] (1.0 pH solution) is given as 8 hours. Besides, the “half life in a 7.4 pH solution” value in series [1] (7.4 pH solution) came to 47 hours. Moreover, the half-life in plasma in series [2] came to 0.35 h.

In the case of `O=C(Oc1ccccc1C(=O)O)c1ccccc1O` [Salsalate, salsalate], the “solubility at normal acidic gastric pH” value in series [3] was “insoluble”.
